{"source": "paper PMC4503722", "about": "“Novel Phenotypic Outcomes Identified for a Public Collection of Approved Drugs from a Publicly Accessible Panel of Assays” (PLoS ONE, 2015)", "assay_in_all_cases": "cells", "format_in_all_cases": "cell-based", "key": {"DLD-1": {"test_system": "DLD-1"}, "SW480": {"test_system": "SW480"}, "HCT116": {"test_system": "HCT116"}, "Colo320": {"test_system": "Colo320"}, "HT-29": {"test_system": "HT-29"}, "RKO": {"test_system": "RKO"}, "SNU-C1": {"test_system": "SNU-C1"}}, "note": "Where two headings read alike, the source gives them in different places.", "data": [{"molecule": "Cc1onc(-c2ccccc2)c1-c1ccc(S(N)(=O)=O)cc1", "note": "[NCGC00095129-06]", "values": [{"measurement": "Basal_Viability ATP DLD-1 IC50/EC50", "setting": "DLD-1", "value": "> 20", "unit": "µM"}, {"measurement": "Basal_Viability ATP SW480 IC50/EC50", "setting": "SW480", "value": "> 20", "unit": "µM"}, {"measurement": "Basal_Viability ATP HCT116 IC50/EC50", "setting": "HCT116", "value": "> 20", "unit": "µM"}, {"measurement": "Basal_Viability ATP Colo 320 IC50/EC50", "setting": "Colo320", "value": "> 20", "unit": "µM"}, {"measurement": "Basal_Viability ATP HT-29 IC50/EC50", "setting": "HT-29", "value": "> 20", "unit": "µM"}, {"measurement": "Basal_Viability ATP RKO IC50/EC50", "setting": "RKO", "value": "> 20", "unit": "µM"}, {"measurement": "Basal_Viability ATP SNU-C1 IC50/EC50", "setting": "SNU-C1", "value": "> 20", "unit": "µM"}]}, {"molecule": "O=C(O)c1ccccc1OP(=O)(O)O", "note": "[NCGC00016668-06]", "values": [{"measurement": "IC50", "setting": "DLD-1; assay number 23, basal, read-out: Basal_Viability ATP DLD-1 summarized IC50", "value": "> 20", "unit": "µM"}, {"measurement": "IC50", "setting": "SW480; assay number 24, basal, read-out: Basal_Viability ATP SW480 summarized IC50", "value": "> 20", "unit": "µM"}, {"measurement": "IC50", "setting": "HCT116; assay number 25, basal, read-out: Basal_Viability ATP HCT116 summarized IC50", "value": "> 20", "unit": "µM"}, {"measurement": "IC50", "setting": "Colo320; assay number 27, basal, read-out: Basal_Viability ATP Colo 320 summarized IC50", "value": "> 20", "unit": "µM"}, {"measurement": "IC50", "setting": "HT-29; assay number 28, basal, read-out: Basal_Viability ATP HT-29 summarized IC50", "value": "> 20", "unit": "µM"}, {"measurement": "IC50", "setting": "RKO; assay number 29, basal, read-out: Basal_Viability ATP RKO summarized IC50", "value": "> 20", "unit": "µM"}, {"measurement": "IC50", "setting": "SNU-C1; assay number 30, basal, read-out: Basal_Viability ATP SNU-C1 summarized IC50", "value": "> 20", "unit": "µM"}]}, {"molecule": "CCOC(=O)Oc1ccc(CCNC(=O)[C@H](CCSC)NC(C)=O)cc1OC(=O)OCC", "note": "[NCGC00249931-01]", "values": [{"measurement": "Basal_Viability ATP DLD-1 IC50/EC50", "setting": "DLD-1; assay number 23", "value": "> 20", "unit": "µM"}, {"measurement": "Basal_Viability ATP SW480 IC50/EC50", "setting": "SW480; assay number 24", "value": "> 20", "unit": "µM"}, {"measurement": "Basal_Viability ATP HCT116 IC50/EC50", "setting": "HCT116; assay number 25, basal", "value": "> 20", "unit": "µM"}, {"measurement": "Basal_Viability ATP Colo 320 IC50/EC50", "setting": "Colo320; assay number 27", "value": "> 20", "unit": "µM"}, {"measurement": "Basal_Viability ATP HT-29 IC50/EC50", "setting": "HT-29; assay number 28", "value": "> 20", "unit": "µM"}, {"measurement": "Basal_Viability ATP RKO IC50/EC50", "setting": "RKO; assay number 29", "value": "> 20", "unit": "µM"}, {"measurement": "Basal_Viability ATP SNU-C1 IC50/EC50", "setting": "SNU-C1; assay number 30", "value": "> 20", "unit": "µM"}]}, {"molecule": "CC=CC1=C(C(=O)O)N2C(=O)[C@@H](NC(=O)[C@H](N)c3ccc(O)cc3)[C@H]2SC1", "note": "[NCGC00159513-03]", "values": [{"measurement": "Basal_Viability ATP DLD-1 IC50/EC50", "setting": "DLD-1; assay number 23", "value": "> 20", "unit": "µM"}, {"measurement": "Basal_Viability ATP SW480 IC50/EC50", "setting": "SW480; assay number 24", "value": "> 20", "unit": "µM"}, {"measurement": "Basal_Viability ATP HCT116 IC50/EC50", "setting": "HCT116; assay number 25, basal", "value": "> 20", "unit": "µM"}, {"measurement": "Basal_Viability ATP Colo 320 IC50/EC50", "setting": "Colo320; assay number 27", "value": "> 20", "unit": "µM"}, {"measurement": "Basal_Viability ATP HT-29 IC50/EC50", "setting": "HT-29; assay number 28", "value": "> 20", "unit": "µM"}, {"measurement": "Basal_Viability ATP RKO IC50/EC50", "setting": "RKO; assay number 29", "value": "> 20", "unit": "µM"}, {"measurement": "Basal_Viability ATP SNU-C1 IC50/EC50", "setting": "SNU-C1; assay number 30", "value": "> 20", "unit": "µM"}]}, {"molecule": "Cc1cccc(Cc2cnc[nH]2)c1C.Cl", "note": "[NCGC00182057-03]", "values": [{"measurement": "IC50/EC50, Basal_Viability ATP DLD-1 (assay number 23)", "setting": "DLD-1; basal", "value": "> 20", "unit": "µM"}, {"measurement": "IC50/EC50, Basal_Viability ATP SW480 (assay number 24)", "setting": "SW480; basal", "value": "> 20", "unit": "µM"}, {"measurement": "IC50/EC50, Basal_Viability ATP HCT116 (assay number 25)", "setting": "HCT116; basal", "value": "> 20", "unit": "µM"}, {"measurement": "IC50/EC50, Basal_Viability ATP Colo 320 (assay number 27)", "setting": "Colo320; basal", "value": "> 20", "unit": "µM"}, {"measurement": "IC50/EC50, Basal_Viability ATP HT-29 (assay number 28)", "setting": "HT-29; basal", "value": "> 20", "unit": "µM"}, {"measurement": "IC50/EC50, Basal_Viability ATP RKO (assay number 29)", "setting": "RKO; basal", "value": "> 20", "unit": "µM"}, {"measurement": "IC50/EC50, Basal_Viability ATP SNU-C1 (assay number 30)", "setting": "SNU-C1; basal", "value": "> 20", "unit": "µM"}]}, {"molecule": "CCCCCCOc1ccccc1C(N)=O", "note": "[NCGC00095049-04]", "values": [{"measurement": "IC50/EC50, Basal_Viability ATP DLD-1 (assay number 23)", "setting": "DLD-1; basal", "value": 8.6657, "unit": "µM"}, {"measurement": "IC50/EC50, Basal_Viability ATP SW480 (assay number 24)", "setting": "SW480; basal", "value": "> 20", "unit": "µM"}, {"measurement": "IC50/EC50, Basal_Viability ATP HCT116 (assay number 25)", "setting": "HCT116; basal", "value": "> 6.6667", "unit": "µM"}, {"measurement": "IC50/EC50, Basal_Viability ATP Colo 320 (assay number 27)", "setting": "Colo320; basal", "value": "> 20", "unit": "µM"}, {"measurement": "IC50/EC50, Basal_Viability ATP HT-29 (assay number 28)", "setting": "HT-29; basal", "value": "> 20", "unit": "µM"}, {"measurement": "IC50/EC50, Basal_Viability ATP RKO (assay number 29)", "setting": "RKO; basal", "value": "> 6.6667", "unit": "µM"}, {"measurement": "IC50/EC50, Basal_Viability ATP SNU-C1 (assay number 30)", "setting": "SNU-C1; basal", "value": 9.3567, "unit": "µM"}]}, {"molecule": "OC[C@@H](O)[C@H](O)[C@H](O)[C@@H](O)CO", "note": "[NCGC00166072-02]", "values": [{"measurement": "Basal_Viability ATP DLD-1 IC50/EC50", "setting": "DLD-1; assay number 23, basal", "value": "> 20", "unit": "µM"}, {"measurement": "Basal_Viability ATP SW480 IC50/EC50", "setting": "SW480; assay number 24, basal", "value": "> 20", "unit": "µM"}, {"measurement": "Basal_Viability ATP HCT116 IC50/EC50", "setting": "HCT116; assay number 25, basal", "value": "> 20", "unit": "µM"}, {"measurement": "Basal_Viability ATP Colo 320 IC50/EC50", "setting": "Colo320; assay number 27, basal", "value": "> 20", "unit": "µM"}, {"measurement": "Basal_Viability ATP HT-29 IC50/EC50", "setting": "HT-29; assay number 28, basal", "value": "> 20", "unit": "µM"}, {"measurement": "Basal_Viability ATP RKO IC50/EC50", "setting": "RKO; assay number 29, basal", "value": "> 20", "unit": "µM"}, {"measurement": "Basal_Viability ATP SNU-C1 IC50/EC50", "setting": "SNU-C1; assay number 30, basal", "value": "> 20", "unit": "µM"}]}, {"molecule": "O=c1c(C2CC(c3ccc(-c4ccc(Br)cc4)cc3)Cc3ccccc32)c(O)sc2ccccc12", "note": "(stereo not drawn) [NCGC00262959-01]", "values": [{"measurement": "Basal_Viability ATP DLD-1 IC50/EC50", "setting": "DLD-1; assay number 23", "value": 0.239, "unit": "µM"}, {"measurement": "Basal_Viability ATP SW480 IC50/EC50", "setting": "SW480; assay number 24", "value": 0.187, "unit": "µM"}, {"measurement": "Basal_Viability ATP HCT116 IC50/EC50", "setting": "HCT116; assay number 25, basal", "value": 0.4855, "unit": "µM"}, {"measurement": "Basal_Viability ATP Colo 320 IC50/EC50", "setting": "Colo320; assay number 27", "value": 0.7354, "unit": "µM"}, {"measurement": "Basal_Viability ATP HT-29 IC50/EC50", "setting": "HT-29; assay number 28", "value": 0.4364, "unit": "µM"}, {"measurement": "Basal_Viability ATP RKO IC50/EC50", "setting": "RKO; assay number 29", "value": 0.5378, "unit": "µM"}, {"measurement": "Basal_Viability ATP SNU-C1 IC50/EC50", "setting": "SNU-C1; assay number 30", "value": 0.2516, "unit": "µM"}]}, {"molecule": "CN(CCOc1ccc(CC2SC(=O)NC2=O)cc1)c1ccccn1", "note": "(stereo not drawn) [NCGC00095124-08]", "values": [{"measurement": "Basal_Viability ATP DLD-1 IC50/EC50", "setting": "DLD-1; assay number 23, basal", "value": "> 20", "unit": "µM"}, {"measurement": "Basal_Viability ATP SW480 IC50/EC50", "setting": "SW480; assay number 24, basal", "value": "> 20", "unit": "µM"}, {"measurement": "Basal_Viability ATP HCT116 IC50/EC50", "setting": "HCT116; assay number 25, basal", "value": "> 20", "unit": "µM"}, {"measurement": "Basal_Viability ATP Colo 320 IC50/EC50", "setting": "Colo320; assay number 27, basal", "value": "> 20", "unit": "µM"}, {"measurement": "Basal_Viability ATP HT-29 IC50/EC50", "setting": "HT-29; assay number 28, basal", "value": "> 20", "unit": "µM"}, {"measurement": "Basal_Viability ATP RKO IC50/EC50", "setting": "RKO; assay number 29, basal", "value": "> 20", "unit": "µM"}, {"measurement": "Basal_Viability ATP SNU-C1 IC50/EC50", "setting": "SNU-C1; assay number 30, basal", "value": 8.6851, "unit": "µM"}]}]}
